Consider three molecules from patent US20100178271A1, “Combination Therapy” (GENZYME CORPORATION, priority 2006, published 2010).

In series [1] the test system is collagen-induced arthritis. The note with it: mice; cited from earlier work.
Series [2] concerns hematopoietic stem and progenitor cells (HSPC), CFU-GM. In words: CFU-GM mobilization into peripheral blood, BALB/c mice.
In series [3] the test system is pre-B-ALL cells. As to conditions: in vitro, cited from earlier work.
The test system of series [4] is hematopoietic stem and progenitor cells (HSPC), CFU-GM. In words: CFU-GM mobilization into peripheral blood, FancC −/− mice. It counts as in vivo.
Series [5] shares this test system. In words: CFU-GM mobilization into peripheral blood, +/+ C57B1 (wild type) mice. The class given is in vivo. The note with it: +/+ C57B1 controls; G-CSF alone regimen.

Consider `c1cc(CN2CCCNCCNCCCNCC2)ccc1CN1CCCNCCNCCCNCC1` [AMD3100, 1,1′-[1,4-phenylene-bis(methylene)]-bis-1,4,8,11-tetraazacyclotetradecane], for which, in series [1], the “effect in collagen-induced arthritis models” value is given as “protective effects”. In series [2] (blood harvested 60 min after AMD (5 mg/kg SC), alone or on day 5 after G-CSF regimen), this molecule registered a CFU-GM/mL blood mobilized of 991±121 CFU-GM/mL blood. Besides, the “effect on cytotoxic and antiproliferative effects of vincristine and dexamethasone” value in series [3] (pre-B-ALL cells) is “enhanced”. In addition, the “SDF-1 induced chemotaxis of pre-B-ALL cells into bone marrow stroma layers” value in series [3] is “blocked”.

Turning to “GROβ: recombinant human GROβ, chemokine, CXCR2 agonist”, the “CFU-GM mobilization in FancC −/− mice relative to +/+ controls” value in series [4] (FancC −/− vs +/+ C57B1) is “lower in FancC −/− mice”. Moreover, the CFU-GM/mL blood mobilized in series [2] (blood harvested 15 min after GROβ (2.5 mg/kg SC) or GROβ+AMD, alone or on day 5 after G-CSF regimen) is on record as 2562±396 CFU-GM/mL blood.

B1: G-CSF: recombinant human Granulocyte-Colony Stimulating Factor (protein, UniProt P09919 31-207, looked up)
Granulocyte …: TPLGPASSLPQSFLLKCLEQVRKIQGDGAALQEKLVSECATYKLCHPEELVLLGHSLGIPWAPLSSCPSQALQLAGCLSQLHSGLFLYQGLLQALEGISPELGPTLDTLQLDVADFATTIWQQMEELGMAPALQPTQGAMPAFASAFQRRAGGVLVASHLQSFLEVSYRVLRHLAQP
On to B1, for which the CFU-GM mobilized in series [4] (FancC −/− mice, G-CSF alone regimen) amounted to 858±21; in series [5], 1451±80. In addition, the “mobilization lower in FancC −/− mice compared to +/+ controls” value in series [4] (FancC −/− vs +/+ C57B1) is on record as 45%. The molecule further registered a CFU-GM/mL blood mobilized in series [2] (G-CSF alone 100 ug/kg/day, bid, SC×4 days) of 4362±996 CFU-GM/mL blood.
